Columns and labels:
SGC-7901 = assay: MTT cytotoxicity assay; type: cell-based, human; details: 48 h drug exposure
Method: (§1) The results reveal that the steric hindrance plays a significant role in the cytotoxicity of complex 3.
(§2) Human cancer cell lines HepG2, SGC-7901, HCT-116, A549, NCI-H1299 and MCF-7 as well as normal liver cell line L02 were purchased from the Cell Bank of Shanghai Institute of Cell Biology. Among them, MCF-7, HepG2 cells were cultured at 37 °C in 5% CO2 with DMEM supplemented with 10% fetal bovine serum (FBS) (Hyclone, Lifescience, USA) and 1% penicillin/streptomycin (Beyotime, Nantong, China), while HCT-116, SGC-7901, A549, NCI-H1299 and L02 cells were cultured at 37 °C in 5% CO2 with RPMI-1640 supplemented with 10% FBS and 1% penicillin/streptomycin. Cells were passed every 2 days and restarted from frozen stocks upon reaching pass number 20.
(§3) In vitro cytotoxicity of the platinum compounds against human hepatocellular carcinoma (HepG-2), gastric carcinoma (SGC-7901), non-small-cell lung cancer (A549), and colorectal cancer (HCT-116) cell lines were measured by the MTT assays. Briefly, the cells were seeded in 96-well cultured plates at a density of 5000 cells/well. After overnight incubation (16 h), the cells were treated with the platinum complexes. After 48 h of incubation, 10 μL of a freshly diluted 3-(4,5-dimethyl-2-thiazolyl)-2,5-diphenyl-2H-tetrazolium bromide (MTT) solution (5 mg/mL) were added to each well and the plates were incubated at 37 °C in a humidified 5% CO2 atmosphere for 4 h. At the end of the incubation period the medium was removed and the formazan product was dissolved in 150 μL of DMSO. The cell viability was evaluated by measurement of the absorbance at 490 nm, using an Absorbance Reader (BioRad). IC50 values (compound concentration that produces 50% of cell growth inhibition) were calculated from curves constructed by plotting cell survival inhibitory rate (%) versus drug concentration logarithm. All experiments were repeated in three times. The reading values were converted to the percentage of control (% cell survival). Cytotoxic effects were expressed as IC50 values.

HepG2 = assay: MTT cytotoxicity assay; type: cell-based, human; details: 48 h drug exposure
Method: as §1, §2, §3

HCT-116 = assay: MTT cytotoxicity assay; type: cell-based, human; details: 48 h drug exposure
Method: as §1, §2, §3

[1] = tested on: L02 normal liver cell line; assay: MTT cytotoxicity assay; type: cell-based; details: 48 h drug exposure
Method: as §1, §2, §3

A549 = assay: MTT cytotoxicity assay; type: cell-based, human; details: 48 h drug exposure
Method: as §1
(§4) The effects of complex 3 on the viability of NSCLC cancer cells including A549 and NCI-H1299 were detected respectively via MTT assays at time points of 12, 24, 48 and 72 h (Figure 2A). The results shown that complex 3 could inhibit the viability of the NSCLC cells.
as §2, §3

NCI-H1299 = assay: MTT cytotoxicity assay; type: cell-based, human; details: 48 h drug exposure, read-out: IC50 NCI-H1299
Method: as §1, §4, §2, §3

NCI-H1299 cells = assay: Annexin V-FITC/PI apoptosis assay (flow cytometry); type: cell-based, human; details: NCI-H1299, 50 μM for 24 h (figure legend and method: 10 μM)
Method: (§5) Apoptosis is a crucial programmed death form of aging or damaged cells. […] To further explore the impact of complex 3 on long-term clonogenic survival, colony formation assay was performed.
(§6) Annexin V-FITC apoptosis detection kit (Keygen, Jiangsu, China) assay was performed according to the manufacturer's protocol. […] Then the cells were collected, resuspended in binding buffer (pH 7.5, 10 mM HEPES, 2.5 mM CaCl2 and 140 mM NaCl), incubated with Annexin V-FITC and then PI for 10 min in the dark at room temperature, the processed cells were analyzed by flow cytometry (FACSCalibur, Becton Dickinson) and a computer station running Cell-Quest software. (BD Biosciences, Franklin Lakes, NJ).

A549 cells [2] = assay: Annexin V-FITC/PI apoptosis assay (flow cytometry); type: cell-based, human; details: A549, 50 μM for 24 h (figure legend and method: 10 μM)
Method: as §5, §6

p-Akt = assay: Western blot of PI3K/Akt/mTOR pathway; type: cell-based, human; details: A549, 10 μM, 24 h, relative to control
From the text: (§7) The mammalian target of rapamycin (mTOR) kinase is used to regulate autophagy as controlled though oxidative stress, hypoxia and growth receptors. The phosphatidylinosital-3 kinase (PI3K)/Akt signaling pathway activates mTOR through phosphorylating and inactivating the tuberous sclerosis complex (TSC)1–TSC2 complex. Inhibition of mTOR results in activation of autophagy. […] At the same time, levels of the p-Akt protein decreased to 0.95-, 1.02-, and 0.39-folds, respectively (Figure 7B). […] As a results, the administration of complex 3 decreased levels of proteins in PI3K/Akt/mTOR signaling pathways.
(§8) Lysates were centrifuged at 12,000 g for 0.5 h at 4°C. The concentrations of total proteins were measured using the BCA assay method with Varioskan spectrofluorometer and spectrophotometer (Thermo, Waltham, MA) at 562 nm. Protein (20–100 μg) prepared from the indicated cells was loaded per lane and electrophoresed in 8% or 10% sodium dodecyl sulfate polyacrylamide gel electrophoresis (SDS-PAGE), and then transferred onto polyvinylidene difluoride (PVDF) Immobilon-P membrane (Bio-Rad, USA) using a transblot apparatus (Bio-Rad, USA). The membranes were blocked with 5% (w/v) non-fat milk at 0.5 h at 37°C, followed by overnight incubation at 4°C with primary antibodies diluted in PBST. After washing with PBST, the membranes were incubated for 1 h with an IRDye´800 conjugated secondary antibody diluted 1:20000 in PBST, and the labeled proteins were detected with an Odyssey Scanning System (Li-COR., Lincoln, Nebraska, USA).

p-mTOR = assay: Western blot of PI3K/Akt/mTOR pathway; type: cell-based, human; details: A549, 10 μM, 24 h, relative to control
From the text: as §7, §8

pET28a plasmid DNA = assay: Agarose gel electrophoresis of plasmid DNA; details: 0, 20, 80, 320, 640 μM
Method: The tested complexes were incubated with DNA at different concentrations.
Appropriate dilutions of tested complexes were made, and the required volumes of solutions were added to achieve a set of concentrations in the range of 0–100 mm; pET22b DNA (5 mL, 0.20 mg) was added to each tube, and the mixtures of platinum complexes and pET22b plasmid DNA were then incubated at 37°C for 6 or 24 h. Afterward, the agarose gel (made up to 1% w/v) containing ethidium bromide was prepared with TA buffer (50 mm Tris-acetate, pH 7.5). The mixtures with loading buffer (1 mL) underwent electrophores is in agarose gel in TA buffer at 100 V for 60 min. Bands were imaged using a Molecular Imager (Bio-Rad, USA) under UV light.

A549 cells [3] = assay: Quantification of apoptotic cells (annexin V/PI flow cytometry); type: cell-based, human; details: A549, NAC pretreatment
Method: (§9) The role of complex 3-induced autophagy in cell death was further analyzed (Figure 6). When A549 cancer cells were treated with complex 3 of 10 μM, the protein expression of LC3-II was increased (Figure 6A). […] Treatment with complex 3 for 24 h caused a 4.5-folds increase in cells undergoing autophagy (Figure 6C). […] Moreover, Bax and Bcl-2 expressions were measured by western blot analysis of whole cell lysates.
(§10) To investigate the role of ROS in complex 3-induced cell death, the level of intracellular H2O2 was measured. […] Exposure of A549 cells to NAC reduced levels of LC3-II from 2.3- to 1.5-folds (Figure 8B). […] In parallel, the complex 3-induced increase ratio of Bax/Bcl-2 was suppressed by NAC (Figure 8E).
The mode of cell death was analyzed by flow cytometry with annexin V/propidium iodide (PI) double-staining to detect membrane events according to a previous study. After individual treatments, whole cells were collected in 4-(2-hydroxyethyl)-1-piperazineethanesulfonic acid (HEPES) buffer containing 10 mM HEPES (pH 7.4), 140 mM NaCl, and 2.5 mM CaCl2. Cells were subsequently stained with annexin V (2.5 μg/ml) and PI (2 ng/ml) for 20 min, followed by analysis by flow cytometry (Beckman Coulter). Cystograms of the four quadrants in the figure were used to distinguish normal (annexin V^−/PI^−), early apoptotic (annexin V^+/PI^−), late apoptotic(annexin V^+/PI^+), and necrotic cells (annexin V^−/PI^+). The sum of early apoptosis and late apoptosis is presented as total apoptosis.

A549 cells [4] = assay: Autophagy by acridine orange flow cytometry (AVOs); type: cell-based, human; details: A549, NAC pretreatment
Method: as §9, §10
Flow cytometry with acridine orange staining as described in a previous study was used to detect and quantify the AVOs, one of the characteristicsof autophagy. At the end of individual experiments, A549 cells were collected in phenol red-free RPMI 1640 medium. Green (FL-1) and red (FL-3) fluorescences of acridine orange were measured using a flow cytometer and CellQuest software (Becton Dickinson, San Jose, CA). The sum of the upper-left and upper-right quadrants of the cytogram was used to estimate the percentage of cells undergoing autophagy.

MCF-7 = assay: MTT cytotoxicity assay; type: cell-based, human; details: exposed for 48 h
Method: as §2
In vitro cytotoxicity of the platinum compounds against human hepatocellular carcinoma (HepG-2), gastric carcinoma (SGC-7901), non-small-cell lung cancer (A549), and colorectal cancer (HCT-116) cell lines were measured by the MTT assays. Briefly, the cells were seeded in 96-well cultured plates at a density of 5000 cells/well. After overnight incubation (16 h), the cells were treated with the platinum complexes. […] The cell viability was evaluated by measurement of the absorbance at 490 nm, using an Absorbance Reader (BioRad). […] The reading values were converted to the percentage of control (% cell survival). Cytotoxic effects were expressed as IC50 values.

Row | SMILES | IC50 (SGC-7901) [µM] | IC50 (HepG2) [µM] | IC50 (HCT-116) [µM] | IC50 [1] [µM] | IC50 (A549) [µM] | IC50 (NCI-H1299) [µM] | early and median apoptotic cells (NCI-H1299 cells) [%] | late apoptotic cells (NCI-H1299 cells) [%] | early and median apoptotic cells (A549 cells [2]) [%] | levels of the p-Akt protein (p-Akt) [folds] | amounts of p-mTOR (p-mTOR) [folds] | gel electrophoretic mobility of plasmid DNA (pET28a plasmid DNA) | effect of NAC pretreatment on percentage of apoptosis (A549 cells [3]) | effect of NAC pretreatment on percentage of autophagy (A549 cells [4]) | IC50 (MCF-7) [µM]
1 | CC(C)C[NH+]1[C@@H]2CCCC[C@H]2[NH+](CC(C)C)[Pt-2]1([Cl])[Cl] (stereo partly shown) [Complex 1] | 44.6 ± 3.24 | 34.1 ± 2.55 | 70.5 ± 5.56 | 148 ± 10.6 | > 100 | > 100 |  |  |  |  |  |  |  |  | 
2 | CC(C)C[NH+]1[C@@H]2CCCC[C@H]2[NH+](CC(C)C)[Pt-2]12[O]C(=O)C(=O)[O]2 (stereo partly shown) [Complex 2] | > 100 | > 100 | 37 ± 2.76 | > 100 | 28.4 ± 1.45 | > 100 |  |  |  |  |  |  |  |  | 
3 | CC(C)CN[C@@H]1CCCC[C@H]1N.O=C([O-])CC(=O)[O-].[Pt+2] [Complex 3a, [(1R,2R)-N^1-(2-methylpropyl)-1,2-cyclohexanediamine-N,N’](malonato-O,O’), reference compound] |  | > 100 | 65.8 ± 4.95 |  | 77.5 ± 5.04 | 94.9 ± 6.74 | 4.58 | 4.12 | 12.37 | 0.39 | 0.69 | no migration was observed | no decreased percentage | no decreased percentage of autophagy | > 100
4 | CC(C)C[NH+]1[C@@H]2CCCC[C@H]2[NH+](CC(C)C)[Pt-2]12[O]C(=O)C1(CCC1)C(=O)[O]2 (stereo partly shown) [Complex 4] | > 100 | > 100 | > 100 | > 100 | > 100 | > 100 |  |  |  |  |  |  |  |  | 
